Reference: patent US5834461A, “Tricyclic benzazepine vasopressin antagonists” (American Cyanamid Company, priority 1997, dated 1998)

Tests used:
[1] = test system: vasopressin V1; assay: Vasopressin V1 Antagonist Activity in Conscious Rats (vasopressin vasopressor response); assay type: in vivo, rat (spontaneously hypertensive rats); parameters: Average Change: unit not given here
Procedure: Conscious rats are restrained in a supine position with elastic tape. The area at the base of the tail is locally anesthetized by subcutaneous infiltration with 2% procaine (0.2 ml). Using aseptic technique the ventral caudal tail artery is isolated and a cannula made of PE 10 and 20 (heat-fused) tubing is passed into the lower abdominal aorta. The cannula is secured, heparinized (1000 i.u./cc), sealed and the wound closed with one or two stitches of Dexon 4-0. The caudal vein is also cannulated in the same manner for intravenous drug administration. The duration of the surgery is approximately 5 minutes. Additional local anesthesia (2% procaine or lidocaine) is provided as needed.
The animals are placed in plastic restraining cages in an upright position. The cannula is attached to a Statham P23Db pressure transducer and pulsatile blood pressure is recorded. […] The vasopressin injections are repeated 30, 60, 90, 120, 180, 240 and 300 min. later. Percentage of antagonism by the compound is calculated using the pre-drug vasopressin vasopressor response as 100%.

[2] = test system: vasopressin V2; assay: Vasopressin V2 Antagonist Activity in Conscious Hydrated Rats (diuretic effect); assay type: in vivo, normal Sprague-Dawley rats; details: AVP 0.4 μg/kg i.p.
Procedure: Conscious hydrated rats are treated with compounds under study from 0.1 to 100 mg/kg orally or vehicle. Two to four rats are used for each compound. One hour later, arginine vasopressin (AVP, antidiuretic hormore, ADH) dissolved in peanut oil is administered at 0.4 μg/kg intraperitoneally. Two rats in each test would not receive arginine vasopressin but only the vehicle (peanut oil) to serve as water-loading control. Twenty minutes later each rat is given 30 mL/kg of deionized water orally by gavage and is placed individually in a metabolic cage equipped with a funnel and a graduated glass cylinder to collect urine for four hours. Urine volume is measured and osmolality analyzed by use of a Fiske One-Ten osmometer (Fiske Assoc., Norwood, Mass., USA). Urinary sodium, potassium, and chloride are analyzed by use of ion-specific electrodes in a Beckman E3 (Electrolyte 3) Analyzer. In the following results, […] and decreased osmolality relative to AVP-control indicates activity.

[3] = target: vasopressin V1 receptor (rat liver plasma membranes) (Rattus norvegicus, UniProt P30560); assay: Binding Assay to Rat Hepatic V1 Receptors; details: rat hepatic V1
Sequence of vasopressin V1 receptor (rat liver plasma membranes) (P30560 whole entry): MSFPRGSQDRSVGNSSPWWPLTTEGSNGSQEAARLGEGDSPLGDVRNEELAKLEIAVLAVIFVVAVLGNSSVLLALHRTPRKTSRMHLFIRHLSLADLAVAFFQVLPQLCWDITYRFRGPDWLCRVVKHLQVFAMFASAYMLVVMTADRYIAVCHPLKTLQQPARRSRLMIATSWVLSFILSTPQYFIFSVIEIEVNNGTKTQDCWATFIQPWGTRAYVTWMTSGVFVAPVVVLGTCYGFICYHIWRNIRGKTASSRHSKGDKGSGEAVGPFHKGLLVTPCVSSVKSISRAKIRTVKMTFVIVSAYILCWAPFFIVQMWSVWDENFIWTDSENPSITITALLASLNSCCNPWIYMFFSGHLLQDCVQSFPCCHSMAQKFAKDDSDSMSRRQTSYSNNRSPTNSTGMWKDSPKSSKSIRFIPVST
Procedure: Rat liver plasma membranes expressing the vasopressin V1 receptor subtypes are isolated by sucrose density gradient according to the method described by Lesko et al., (1973). These membranes are quickly suspended in 50.0 mM Tris.HCl buffer, pH 7.4, containing 0.2% bovine serum albumin (BSA) and 0.1 mM phenylmethylsulfonylfluoride (PMSF) and kept frozen at -70° C. until used in subsequent binding experiments. For binding experiments, the following is added to the wells of a ninety-six well format microtiter plate: 100 μl of 100.0 mM Tris.HCl buffer containing 10.0 mM MgCl2, 0.2% heat inactivated BSA and a mixture of protease inhibitors: leupeptin, 1.0 mg %; aprotinin, 1.0 mg %; 1,10-phenanthroline,2.0 mg %; trypsin inhibitor, 10.0 mg % and 0.1 mM PMSF, 20.0 μl of [phenylalanyl-3,4,5,-^3 H] vasopressin (S.A. 45.1 Ci/mmole) at 0.8 nM, and the reaction initiated by the addition of 80 μl of tissue membranes containing 20 μg of tissue protein. The plates are kept undisturbed on the bench top at room temperature for 120 min. to reach equilibrium. Non-specific samples are assayed in the presence of 0.1 μM of the unlabeled antagonist phenylalanylvasopressin, added in 20.0 μl volume.
For test compounds, these are solubilized in 50% dimethylsulfoxide (DMSO) and added in 20.0 μl volume to a final incubation volume of 200 μl. Upon completion of binding, the content of each well is filtered off, using a Brandel® cell Harvester (Gaithersburg, Md.). The radioactivity trapped on the filter disk by the ligand-receptor complex is assessed by liquid scintillation counting in a Packard LS Counter, with an efficiency of 65% for tritium.

[4] = target: T1, rat kidney medullary V2 receptors (Rattus norvegicus, UniProt Q00788); assay: Binding Assay to Rat Kidney Medullary V2 Receptors; details: rat kidney medullary V2
T1 construct: Medullary tissues from rat kidneys are dissected out; from tissue; host or cells: rat kidney medulla membranes
T1 sequence (Q00788 whole entry): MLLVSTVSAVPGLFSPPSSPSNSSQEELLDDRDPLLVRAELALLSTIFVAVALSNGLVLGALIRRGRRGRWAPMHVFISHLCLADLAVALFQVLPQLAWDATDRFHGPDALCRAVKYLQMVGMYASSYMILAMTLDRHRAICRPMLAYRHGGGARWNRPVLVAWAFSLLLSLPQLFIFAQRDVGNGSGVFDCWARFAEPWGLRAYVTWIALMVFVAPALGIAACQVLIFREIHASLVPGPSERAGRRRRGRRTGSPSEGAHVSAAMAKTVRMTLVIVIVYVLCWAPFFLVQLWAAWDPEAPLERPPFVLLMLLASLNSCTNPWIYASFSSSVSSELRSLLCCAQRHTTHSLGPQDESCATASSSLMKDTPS
Procedure: Medullary tissues from rat kidneys are dissected out, cut into small pieces and soaked in a […] sodium chloride solution containing 1.0 mM EDTA with many changes of the liquid phase, until the solution is clear of blood. The tissue is homogenized in a 0.25M sucrose solution containing 1.0 mM EDTA and 0.1 mM PMSF using a Potter-Elvehjem homogenizer with a teflon pestle. The homogenate is filtered through several layers (4 layers) of cheese cloth. The filtrate is rehomogenized using a dounce homogenizer, with a tight fitting pestle. The final homogenate is centrifuged at 1500×g for 15 min. The nuclear pellet is discarded and the supernatant fluid recentrifuged at 40,000×g for 30 min. The resulting pellet formed contains a dark inner part with the exterior, slightly pink. The pink outer part is suspended in a small amount of 50.0 mM Tris.HCl buffer, pH 7.4. The protein content is determined by the Lowry's method (Lowry et al., J. Biol. Chem., 1953). The membrane suspension is stored at -70° C., in 50.0 mM Tris.HCl, containing 0.2% inactivated BSA and 0.1 mM PMSF in aliquots of 1.0 ml containing 10.0 mg protein per ml of suspension until use in subsequent binding experiments.
For binding experiments, the following is added in μl volume to wells of a 96 well format of a microtiter plate: 100.0 μl of 100.0 mM Tris.HCl buffer containing 0.2% heat inactivated BSA, 10.0 mM MgCl2 and a mixture of protease inhibitors: leupeptin, 1.0 mg %; aprotinin, 1.0 mg %; 1,10-phenanthroline, 2.0 mg %; trypsin inhibitor, 10.0 mg % and 0.1 mM PMSF, 20.0 μl of [^3 H] Arginine^8, vasopressin (S.A. 75.0 Ci/mmole) at 0.8 nM and the reaction initiated by the addition of 80.0 μl of tissue membranes (200.0 μg tissue protein). The plates are left undisturbed on the bench top for 120 min to reach equilibrium. Non-specific binding is assessed in the presence of 1.0 μM of unlabeled ligand, added in 20 μl volume. For test compounds, these are solubilized in 50% dimethylsulfoxide (DMSO) and added in 20.0 μl volume to a final incubation volume of 200 μl. Upon completion of binding, the content of each well is filtered off, using a Brandel® cell Harvester (Gaithersburg, Md.). The radioactivity trapped on the filter disk by the ligand-receptor complex is assessed by liquid scintillation counting in a Packard LS Counter, with an efficiency of 65% for tritium.

[5] = 10 mg/kg i.v., VAS 0.01 i.u./kg, 30 min
[6] = 10 mg/kg i.v., VAS 0.02 i.u./kg, 30 min
[7] = 20 mg/kg i.v., VAS 0.01 i.u./kg, 60 min
[8] = 20 mg/kg i.v., VAS 0.01 i.u./kg, 90 min
[9] = 20 mg/kg i.v., VAS 0.01 i.u./kg, 120 min
[10] = 20 mg/kg i.v., VAS 0.01 i.u./kg, 180 min
[11] = 20 mg/kg i.v., VAS 0.01 i.u./kg, 240 min
[12] = 20 mg/kg i.v., VAS 0.01 i.u./kg, 300 min
[13] = 20 mg/kg i.v., VAS 0.02 i.u./kg, 60 min
[14] = 20 mg/kg i.v., VAS 0.02 i.u./kg, 90 min
[15] = 20 mg/kg i.v., VAS 0.02 i.u./kg, 120 min
[16] = 20 mg/kg i.v., VAS 0.02 i.u./kg, 180 min
[17] = 20 mg/kg i.v., VAS 0.02 i.u./kg, 240 min
[18] = 20 mg/kg i.v., VAS 0.02 i.u./kg, 300 min

| IC50 [3] [nM] | IC50 [4] [nM] | SMILES | Osmolality ([2]; 10 mg/kg orally) [mOsm/kg] | Urine Volume ([2]; 10 mg/kg orally) [ml/4 hrs.] | Average Change [1, 5] | Average Change [1, 6] | Inhibition [1, 6] [%] | Average Change [1, 7] | Inhibition [1, 7] [%] | Average Change [1, 8] | Inhibition [1, 8] [%] | Average Change [1, 9] | Inhibition [1, 9] [%] | Average Change [1, 10] | Inhibition [1, 10] [%] | Average Change [1, 11] | Inhibition [1, 11] [%] | Average Change [1, 12] | Inhibition [1, 12] [%] | Average Change [1, 13] | also measured |
| --- | --- | --- | --- | --- | --- | --- | --- | --- | --- | --- | --- | --- | --- | --- | --- | --- | --- | --- | --- | --- | --- |
| 260 | 260 | O=C(Nc1ccc(C(=O)N2Cc3ccccc3Cc3ccccc32)cc1)c1c(Cl)cccc1Cl [Example 252, N-[4-[(6,11-Dihydro-5H-dibenz[b,e]azepin-5-yl)-carbonyl]phenyl]-2,6-dichlorobenzamide] | 790 | 7.5 |  |  |  |  |  |  |  |  |  |  |  |  |  |  |  |  | MAX % Inhibition ([1]; 30 mg/kg i.v.): 75%; Time of max % inhibition ([1]; 30 mg/kg i.v.): 120 min |
| 46 | 51 | Cc1cccc(C(=O)Nc2ccc(C(=O)N3Cc4ccccc4Cc4cc(Cl)ccc43)cc2)c1C [Example 138, N-[4-[(2-Chloro-6,11-dihydro-5H-dibenz[b,e]azepin-5-yl)carbonyl]phenyl]2,3-dimethylbenzamide] |  |  |  |  |  |  |  |  |  |  |  |  |  |  |  |  |  |  | MAX % Inhibition ([1]; 10 mg/kg i.v.): 88%; Time of max % inhibition ([1]; 10 mg/kg i.v.): 60 min; Osmolality ([2]; 30 mg/kg orally): 380 mOsm/kg; Urine Volume ([2]; 30 mg/kg orally): 13.8 ml/4 hrs. |
| 510 | 430 | Cc1ccccc1C(=O)N(C)c1ccc(C(=O)N2Cc3ccccc3Cc3ccccc32)cc1 [Example 167, N-[4-[ (6,11-Dihydro-5H-dibenz[b,e]azepin-5-yl)carbonyl]phenyl]-N-methyl-2-methylbenzamide] |  |  |  |  |  |  |  |  |  |  |  |  |  |  |  |  |  |  | MAX % Inhibition ([1]; 10 mg/kg i.v.): 70%; Time of max % inhibition ([1]; 10 mg/kg i.v.): 180 min; Osmolality ([2]; 30 mg/kg orally): 1544 mOsm/kg; Urine Volume ([2]; 30 mg/kg orally): 2 ml/4 hrs. |
| 1200 | 210 | Cc1cccc(NC(=O)c2ccc(C(=O)N3Cc4ccccc4Cc4ccccc43)cc2)c1C [Example 124, 4-[(6.11-Dihydro-5H-dibenz[b,e]azepin-5-yl)-carbonyl]-N-(2,3-dimethylphenyl)benzamide] | 1172 | 5.5 | 38.5 | 43.5 | -23 | 4 | 88 | 12.5 | 62 | 12.5 | 62 | 21 | 35 | 18 | 45 | 20 | 38 | 17.5 | Inhibition [1, 13]: 51%; Average Change [1, 14]: 18; Inhibition [1, 14]: 49%; Average Change [1, 15]: 9.5; Inhibition [1, 15]: 45%; Average Change [1, 16]: 21.5; Inhibition [1, 16]: 39%; Average Change [1, 17]: 24.5; Inhibition [1, 17]: 31%; Average Change [1, 18]: 33.5; Inhibition [1, 18]: 6% |
| 52 | 68 | CSc1ccccc1C(=O)Nc1ccc(C(=O)N2Cc3ccccc3Cc3ccccc32)cc1 [Example 61, N-[4-[(6.11-Dihydro-5H-dibenz[b.e]azepin-5-yl)-carbonyl]phenyl]-2-(methylthio)benzamide] | 975 | 9.3 | 21 | 32.5 | 37 | 13 | 54 | 8 | 72 | 12 | 58 | 15.5 | 46 | 12 | 58 | 15.5 | 46 | 14.5 | Inhibition [1, 5]: 26%; Inhibition [1, 13]: 72%; Average Change [1, 14]: 16.5; Inhibition [1, 14]: 68%; Average Change [1, 15]: 20; Inhibition [1, 15]: 61%; Average Change [1, 16]: 17.5; Inhibition [1, 16]: 66%; Average Change [1, 17]: 23; Inhibition [1, 17]: 55%; Average Change [1, 18]: 24; Inhibition [1, 18]: 53% |
| 404 | 858 | Cc1ccccc1C(=O)Nc1ccc(C(=O)N2Cc3ccccc3Sc3ccccc32)cc1 [Example 62, N-[4-[(Dibenz[b,f][1,4]thiazepin-10(11H)yl)carbonyl]-phenyl]-2-methylbenzamide] | 1034 | 7.7 | 57 | 61.5 | -2 | 13 | 67 | 23 | 42 | 23.5 | 41 | 24.5 | 38 | 30 | 24 | 25 | 37 | 29.5 | Inhibition [1, 5]: -44%; Inhibition [1, 13]: 51%; Average Change [1, 14]: 54; Inhibition [1, 14]: 11%; Average Change [1, 15]: 50; Inhibition [1, 15]: 17%; Average Change [1, 16]: 15; Inhibition [1, 16]: 75%; Average Change [1, 17]: 40.5; Inhibition [1, 17]: 33%; Average Change [1, 18]: 38; Inhibition [1, 18]: 37% |
